This is an account of results in patent US20250290151A1, “Differentially-Methylated Regions of the Genome Useful as Markers of Embryo-Adult Transitions” (priority 2019, published 2025).

Structures are written as SMILES. Where “and” joins values, the source holds several entries; their conditions need not be identical. Equal entries are not always repeated.

The test system of one test is adult bone marrow MSCs. Kind of test: H2O2-mediated apoptosis (survival) before and after knock-down of COX7A1. The format is cell-based, human. The settings on record: 300 uM H2O2. The protocol: (§1) Similarly, normal pre-EFT vascular progenitors were more sensitive to apoptosis at 37 uM of camptothecin (39% apoptosis) compared to adult aortic endothelial counterparts (25.5% apoptosis). In addition, H2O2-mediated apoptosis was measured in post-EFT cells (adult bone marrow MSCs) before and after knock-down of COX7A1 expression.

Test [1] deals with normal pre-EFT vascular progenitors. Kind of test: TUNEL apoptosis assay after camptothecin, pre-EFT vascular progenitors. The format is cell-based, human. The settings on record: 37 uM camptothecin, 24 h. The protocol:
(§2) The pre-EFT (DC) fibrosarcoma cell line HT1080 was infected with lentivirus expressing COX7A1 together with a control line expressing green fluorescent protein (GFP). The resulting cells were treated with 0, 0.37, and 37 uM camptothecin to generate a DNA damage response and apoptosis. TUNEL (TdT-mediated dUTP-X nick end labeling) adds label to termini of ssDNA and dsDNA. Readout used was fluorescent nuclei read by microscopy. In brief, cell lines were cultured in 96-well plates at 5000 cells/well and grown over night. The following day, the growth medium was removed and replaced with growth medium containing compounds and controls. After 24 h, the cells are fixed for 20 minutes using 4% PFA. Plates are stored at 4 deg C. in PBS until processing. Fixed cells were permeabilized with 0.1% Triton X-100 and 0.1% sodium citrate for 2 minutes on ice. […] 9 images per well were collected and analyzed for total cell number and number of cells stained for apoptosis.
as §1

Test [2] concerns fibrosarcoma cell line HT1080. Kind of test: TUNEL apoptosis assay after camptothecin, HT1080 expressing COX7A1 vs GFP control. The settings on record: 0, 0.37 and 37 uM camptothecin, 24 h, p<0.05. The format is cell-based, human. Here is the method: as §2, §1
The test system of test [3] is adult aortic endothelial counterparts. Put plainly: TUNEL apoptosis assay after camptothecin, adult aortic endothelial cells. In kind it is cell-based, human. The settings on record: 37 uM camptothecin, 24 h. Here is the method: as §2, §1
Test [4] has as its system xenograft breast tumors derived from the breast cancer cell line MCF-7. Kind of test: COX7A1 expression in MCF-7 xenograft breast tumors after doxorubicin. The following applies: MCF-7 xenograft breast tumors treated with doxorubicin; controls 3.84 and 4.52. The format is in vivo. From the text:
The present invention instead teaches the contrary, that these surviving CSCs are instead cancer cells that display a post-EFT pattern (i.e. a more mature pattern) of gene expression. Using the expression of the gene COX7A1 as a transcriptional marker of pre- or post-EFT cells wherein COX7A1 is expressed in post-EFT cells, we observe that pancreatic cancer with ablated KRAS leading to pancreatic CSCs, results in increased COX7A1 and CAT (also a post-EFT marker), not decreased as predicted by current models (FIG. 10). In addition, the treatment of xenograft breast tumors derived from the breast cancer cell line MCF-7 with the anti-tumor anthracycline antibiotic doxorubicin results in COX7A1 RFU levels of 5.04 and 5.57 compared to controls of 3.84 and 4.52 in controls, again indicative of the more mature state of surviving cells following chemotherapy. In addition, in the example of rectal cancer, levels of COX7A1 expression were 92.7 RFUs following radiotherapy compared to 75 RFUs in untreated rectal cancer (p<0.05). […]

Take `OO` [H2O2]: the cells surviving in the test with adult bone marrow MSCs (MSCs after knockdown of COX7A1 (iTR modality), p<0.05) worked out at 59.8%; with adult bone marrow MSCs (normal adult bone marrow MSCs), 82.4%.
Turning to `CC[C@@]1(O)C(=O)OCc2c1cc1n(c2=O)Cc2cc3ccccc3nc2-1` [camptothecin], the figures for the apoptosis in test [1] and in test [3] were 39% and 25.5%, respectively. The “sensitivity to apoptosis (TUNEL)” value in test [2] is reported as “significantly decreased sensitivity to apoptosis”.
Consider `COc1cccc2c1C(=O)c1c(O)c3c(c(O)c1C2=O)C[C@@](O)(C(=O)CO)C[C@@H]3O[C@H]1C[C@H](N)[C@H](O)[C@H](C)O1` [doxorubicin], for which, in test [4], the “COX7A1 RFU levels” value is 5.04 RFU and 5.57 RFU.
